Results published in publication PMC9568543, “Bee-safe peptidomimetic acaricides achieved by comparative genomics” (Scientific Reports, 2022).
Where a SMILES comes first, the peptide text is derived from it. Where no end group is shown, it is not given here. [ ]: non-standard residue; d: D form. Oic = O=C(O)[C@@H]1C[C@@H]2CCCC[C@@H]2N1

What was measured:
CHO cells, empty vector = assay: Negative control, CHO cells transfected with the empty vector; assay type: cell-based, Chinese hamster; details: 10 µM
Experimental: The receptor was also tested with a variety of peptide analogs and peptidomimetics.
(§1) Approximately thirty hours after transfection, the cells were collected and preincubated with coelenterazine h for the functional assay, as previously described[30],[31],[52]. The ligands in serial dilutions were loaded into 96-well opaque plates. Cells treated with coelenterazine h were injected into each well on an Orion microplate luminometer (Berthold) luminescent plate reader. The luminescence was measured for 20 s immediately after the cell injections. Data analyses were performed to determine the accumulated luminescence value for 20 s after extraction of blank-well luminescence. A dose–response curve was generated and the EC50 (50% effective concentration) was calculated in Origin 7 (OriginLab) as described in Jiang et al.[31],[53]. The three biological replications were regressed for the dose–response curves with 95% confidence intervals (Table 1). For the tests of the second set of ligands, we used the cell line that stably expressed VdProctR, which were selected by Zeocin for 5 passages.

[1] = test system: honey bee FMRFamide receptor; assay: Activity on honey bee FMRFamide receptor expressed in CHO cells; assay type: cell-based, Apis mellifera
Experimental: as §1, with “Honey bee FMRFamide receptor was cloned and expressed in the same system as described for the proctolin receptor. […] Approximately” for “Approximately”, “A dose–response curve was generated and the EC50 (50% effective concentration) was calculated in Origin 7 (OriginLab) as described in Jiang et al.[31],[53].” left out, “dose-response” for “dose–response”

Bombyx mori larval gut = details: cited from earlier work
honey bee queen = details: injection, 1 µL containing 1 µg; cited from earlier work
[2] = target: Varroa mite proctolin receptor (VdProctR) (Varroa destructor, UniProt A0A7T1TE40); assay: Receptor activity assay (aequorin luminescence), CHO cells transiently expressing the receptor, first set of ligands; assay type: cell-based; details: activities at 1 μM and 10 μM
Varroa mite proctolin receptor (VdProctR), sequence (A0A7T1TE40 entry or part of it): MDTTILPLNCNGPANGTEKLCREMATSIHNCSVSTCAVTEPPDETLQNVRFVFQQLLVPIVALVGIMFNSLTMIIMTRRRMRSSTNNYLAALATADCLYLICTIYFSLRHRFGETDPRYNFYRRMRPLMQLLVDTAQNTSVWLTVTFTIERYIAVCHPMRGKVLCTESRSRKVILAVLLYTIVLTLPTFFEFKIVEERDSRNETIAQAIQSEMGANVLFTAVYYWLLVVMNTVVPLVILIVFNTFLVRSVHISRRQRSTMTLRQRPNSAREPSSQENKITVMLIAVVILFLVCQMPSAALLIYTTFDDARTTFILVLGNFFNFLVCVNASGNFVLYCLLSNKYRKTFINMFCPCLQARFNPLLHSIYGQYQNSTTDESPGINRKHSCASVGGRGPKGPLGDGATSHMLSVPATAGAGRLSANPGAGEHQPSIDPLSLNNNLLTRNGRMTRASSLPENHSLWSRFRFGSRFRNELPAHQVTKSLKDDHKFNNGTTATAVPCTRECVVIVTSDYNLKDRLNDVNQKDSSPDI
Experimental: as §1, with “A dose–response curve was generated and the EC50 (50% effective concentration) was calculated in Origin 7 (OriginLab) as described in Jiang et al.[31],[53].” left out

Varroa mites = assay: Varroa mite feeding assay (drop on gnathosoma), paralysis/death; assay type: in vivo, Varroa destructor; details: 48 h; 200 nL on gnathosoma; 0.1 nM (methods) / 0.01 nM (Fig. 4 legend)
Experimental: In the continued bioassay, the toxicities were assessed by counting paralysis/death in feeding assay. A drop of 200 nL solution was placed on the gnathosoma of an immobilized mite for forced feedings of active components. Low levels of acute toxicities of peptidomimetics were indicated by lower than 50% effects within 6 h after the treatments. The toxic effects were increased over time and reached 100% of the effects in the 48 h treatments of 2336 (Fig. 4, ANOVA p < 0.05). In H2O control, about 10% or less of the number of individuals were paralyzed/dead. Accurate cause of the paralysis/death remains yet to be studied.
Adult female Varroa mites were collected using a sugar roll method from honey bee hives located at the East Campus apiary of the University of Nebraska (Lincoln, NE USA) in September–October 2019. The hives were not treated with chemicals for honey bee parasites or pathogens. The mites were sorted in the laboratory with a paint brush and tested within 4 h post collection. […] The number of affected (i.e., dead and/paralyzed) was observed and recorded at 1, 2, 6, 12, 24, and 48 h. The percent effect for each treatment was analyzed using a one-way analysis of variance (ANOVA) with a Tukey’s post-hoc test (GraphPad Prism, La Jolla, CA; p < 0.05).

| Compound | activity on empty-vector transfected cells (CHO cells, empty vector) | activity on honey bee FMRFamide receptor [1] | concentration required for hindgut contraction (Bombyx mori larval gut; Bombyx mori larval hindgut) [µM] | concentration required in the midgut to slightly reduce leucine uptake (Bombyx mori larval gut; Bombyx mori larval midgut) [µM] | effect on egg-laying activity of the queen (honey bee queen) | efficacy (maximal response) compared with proctolin [2] | effects (paralyzed or dead mites) (Varroa mites) [%] |
| --- | --- | --- | --- | --- | --- | --- | --- |
| RYLPT [Proctolin, RYLPT] | did not show any activity | no activities | 180 | 10 | increased the egg-laying activity | – | – |
| CC(C)C[C@H](NC(=O)[C@H](Cc1ccc(O)cc1)NC(=O)[C@@H](N)CCCNC(=N)N)C(=O)N1[C@H](C(=O)N[C@H](C(=O)O)[C@@H](C)O)C[C@@H]2CCCC[C@@H]21 [Analog 2336, RYL[Oic]T] (H-RYL[Oic]T-OH; N-terminus and C-terminus assumed) | – | – | – | – | – | higher than that of proctolin | 100 |
